Measured values taken from patent US20240366550A1, “Drug for Treating Prostatitis or Benign Prostatic Hyperplasia (BPH)” (Beijing University of Chemical Technology, priority 2021, published 2024).
Like-named read-outs stand apart in the source and are kept apart here.

How the values were obtained:
[1] = tested on: chronic bacterial prostatitis (type-II prostatitis patients)
Description: (§1) General information: this group of patients included 117 cases, aged 18 to 52 years old, with an average age of 34.5 years, and their disease duration ranged from 2 months to 5 years.
(§2) Treatment method: 10 mg of SFA per day for 4 to 6 weeks.
Criteria for determining efficacy: the patients were scored according to the Chronic Prostatitis Score (NIH2CPSI) of the National Institutes of Health (NIH); the efficacy was determined based on the patient's symptoms, routine examination results of prostate fluid obtained by massage, and VB3 and EPS bacterial culture results obtained by the Meares-Stamey four-cup test.

prostatic hyperplasia = settings: of 55 subjects in total
Description: as §1, §2

in vivo = settings: po
clinical = settings: male, human, po, 10 mg
Description: The drug concentration of SFA in vivo was determined in 9 cases of the 115 patients: the patients took 10 mg of SFA orally every day for 3 consecutive days.

[2] = number of patients relieved/total number of patients
[3] = of the remaining 95 cases taking the drug for 6 weeks

C[S+]([O-])CCCCN=C=S (centres unmarked) [SFA, Sulforaphane]
total effective rate ([1]; 12 patients infected with Escherichia coli, 11 with Streptococcus agalactiae, 8 with Streptococcus faecalis): 10000 | total effective rate ([1]; 115 patients, 4 to 6 weeks): 88.7% | Urination symptom score ([1]; after treatment, 10 mg SFA per day for 4 to 6 weeks, before treatment 6.8 ± 1.1, P<0.01): 3.2 ± 1.1 | Quality of life score ([1]; after treatment, 10 mg SFA per day for 4 to 6 weeks, before treatment 15.2 ± 4.6, P<0.01): 7.5 ± 1.3 | Pain and discomfort score ([1]; after treatment, 10 mg SFA per day for 4 to 6 weeks, before treatment 15.3 ± 2.6, P<0.01): 10.3 ± 3.2 | NIH-CPSI score ([1]; after treatment, 10 mg SFA per day for 4 to 6 weeks, before treatment 35.2 ± 3.3, P<0.01): 20.1 ± 5.6 | White blood cells in prostatic fluid obtained by massage: Negative ([1]; after treatment, before treatment 0): 32 number of people | White blood cells in prostatic fluid obtained by massage: ++++ ([1]; after treatment, before treatment 14): 4 number of people | White blood cells in prostatic fluid obtained by massage: +++ ([1]; after treatment, before treatment 28): 9 number of people | White blood cells in prostatic fluid obtained by massage: + ([1]; after treatment, before treatment 31): 49 number of people | White blood cells in prostatic fluid obtained by massage: ++ ([1]; after treatment, before treatment 44): 21 number of people | Relieving rate, distending pain and discomfort in the suprapubic region [1, 2]: 82.9% | Relieving rate, ejaculation pain [1, 2]: 81.2% | Relieving rate, feeling of incomplete urination [1, 2]: 67.1% | Relieving rate, frequent urination [1, 2]: 80.2% | Relieving rate, labored urination [1, 2]: 72.6% | Relieving rate, penis pain [1, 2]: 77.3% | Relieving rate, perineum pain [1, 2]: 69.5% | Relieving rate, urgent urination [1, 2]: 81.3% | Relieving rate, white urine [1, 2]: 91.2% | cases cured within 4 weeks of taking the drug ([1]; of 115 patients who completed treatment, 10 mg per day): 20 cases | cases cured [1, 3]: 15 cases | cases effective [1, 3]: 23 cases | cases ineffective [1, 3]: 13 cases | cases markedly effective [1, 3]: 44 cases | Number of subjects, prostatic hyperplasia: Cured (prostatic hyperplasia): 52 | Number of subjects, prostatic hyperplasia: Effective (prostatic hyperplasia): 2 | Number of subjects, prostatic hyperplasia: Ineffective (prostatic hyperplasia): 1 | bioavailability (in vivo): 90% | concentration at 6 h (clinical; blood): 50.6 to 182 ng/mL | concentration at 6 h (clinical; prostatic fluid obtained by massage): 13.5 to 22.8 ng/mL | concentration at 6 h (clinical; semen): 2.6 to 5.5 ng/mL
